Measurements published in patent US7737309B2, “Clathrate compound, method for controlling concentration of aqueous agricultural chemical active ingredient solution, and agricultural chemical formulation” (Nippon Soda Co., Ltd., priority 2004, dated 2010).
Counter-ions that a name gives are not always drawn. Like-named read-outs stand apart in the source and are kept apart here.

How the values were obtained:
[1] = system: striped flea beetle; assay: Test as a seed treatment agent used in combination with a synthetic pyrethroid agent (rapeseeds); format: in vivo; conditions: Treatment amount 500 g/100 kg of seeds
From the text: (§1) Immediately after that, the vinyl bag was closed, and the rapeseeds were coated with the chemical by vigorously shaking for 30 seconds. These seeds were spread over a tray and then air-dried at room temperature overnight to obtain rapeseeds coated with 500 g of acetamiprid per 100 kg of seeds.
as §1, with “g of bifenthrin and 500 g of acetamiprid per” for “g of acetamiprid per”
The obtained seeds were seeded in a No. 2 pot containing alluvial soil and then cultivated in a greenhouse. […] 2 days after standing, the number of incidences of insect damage due to imagines of striped flea beetle of 3 plants in each experimental plot was counted.

[2] = Measurement of saturated solubility; format: physicochemical; conditions: for saturated solubility: after standing at 25° C. for 192 hours; for Concentration of acetamiprid: distilled water at 25° C.
Protocol: After weighing a fixed amount of each of the Clathrate compounds 1 to 4 obtained in Examples 1 to 4 and an acetamiprid as a control in a measuring flask, distilled water at 25° C. was added to obtain an equal volume. After stoppering and up-and-down shaking for 5 times, the measuring flask was allowed to stand in an incubator at 25° C. After up-and-down shaking for 5 times followed by sampling with the passage of time, water at 25° C. was added to obtain an equal volume again, and sampling was carried out up to 192 hours. The concentration of acetamiprid in the sampled solution was measured by HPLC and then the saturated solubility was calculated.

[3] = cited from earlier work

Row | SMILES | saturated solubility [2] | Concentration of acetamiprid ([2]; 1 hour) | Concentration of acetamiprid ([2]; 3 hours) | Concentration of acetamiprid ([2]; 24 hours) | Concentration of acetamiprid ([2]; 48 hours) | Concentration of acetamiprid ([2]; 72 hours) | Concentration of acetamiprid ([2]; 192 hours) | aqueous solubility ([3]; temperature not given) | further results
1 | Cc1c(COC(=O)[C@@H]2[C@H](/C=C(\Cl)C(F)(F)F)C2(C)C)cccc1-c1ccccc1 (racemic) [Bifenthrin] |  |  |  |  |  |  |  |  | Insecticidal ratio % after 15 days [1]: 75.4%; Number of incidences of insect damage/3 plants after 15 days [1]: 98
2 | C/C(=N\C#N)N(C)Cc1ccc(Cl)nc1 [Acetamiprid, (E)-N1-[(6-chloro-3-pyridyl)methyl]-N2-cyano-N1-methylacetamidine, reference compound] | 3807 ppm | 2,822 ppm | 3,273 ppm | 3,734 ppm | 3,776 ppm | 3,752 ppm | 3,807 ppm |  | aqueous solubility ([3]; 25° C.): 4200 ppm
3 | CC(=NC#N)N(C)Cc1ccc(Cl)nc1.CC(=NC#N)N(C)Cc1ccc(Cl)nc1.Oc1ccc(C(c2ccc(O)cc2)C(c2ccc(O)cc2)c2ccc(O)cc2)cc1 [Clathrate compound 1] | 232 ppm | 121 ppm | 134 ppm | 193 ppm | 210 ppm | 221 ppm | 232 ppm |  | 
4 | CC(=NC#N)N(C)Cc1ccc(Cl)nc1.CO.Oc1ccc(C(c2ccc(O)cc2)C(c2ccc(O)cc2)c2ccc(O)cc2)cc1 [Clathrate compound 2] | 238 ppm | 72 ppm | 79 ppm | 161 ppm | 200 ppm | 217 ppm | 238 ppm |  | 
5 | CC(=NC#N)N(C)Cc1ccc(Cl)nc1.CCO.Oc1ccc(C(c2ccc(O)cc2)C(c2ccc(O)cc2)c2ccc(O)cc2)cc1 [Clathrate compound 3] | 230 ppm | 156 ppm | 156 ppm | 163 ppm | 179 ppm | 200 ppm | 230 ppm |  | 
6 | ClC=CCCl [D-D, 1,3-dichloropropene] |  |  |  |  |  |  |  | 2000 ppm | 
7 | COP(=O)(NC(C)=O)SC (centres unmarked) [acephate, O,S-dimethyl-N-acetylphosphoroamide thioate] |  |  |  |  |  |  |  | about 650000 ppm | 
8 | CNC(=O)Oc1cccc2c1OC(C)(C)O2 [bendiocarb, 2,2-dimethyl-1,3-benzodioxol-4-yl-methylcarbamate.hydrochloride] |  |  |  |  |  |  |  |  | aqueous solubility ([3]; 25° C.): 26000 ppm
9 | CCSCc1ccccc1OC(=O)NC [ethiofencarb, 2-ethylthiomethylphenylmethylcarbamate] |  |  |  |  |  |  |  |  | aqueous solubility ([3]; 20° C.): 1800 ppm
10 | CNC(=O)ON=C(C)SC [methomyl, S-methyl-N-(methylcarbamoyloxy)thioacetimidate] |  |  |  |  |  |  |  | 58000 ppm | 
11 | CCN(Cc1ccc(Cl)nc1)/C(=C/[N+](=O)[O-])NC [nitenpyram, (E)-N-(6-chloro-3-pyridylmethyl)-N-ethyl-N′-methyl-2-nitrovinylidenediamine] |  |  |  |  |  |  |  | about 2000 ppm | 
12 | CN1COCN(Cc2cnc(Cl)s2)/C1=N\[N+](=O)[O-] [thiamethoxam] |  |  |  |  |  |  |  |  | aqueous solubility ([3]; 25° C.): 4100 ppm
